One data set relates to human RPE cells. Briefly: [3H]thymidine incorporation / proliferation of cultured human RPE cells. Particulars: for effect on RPE cell proliferation, agent alone: FIG. 3, alone. (In general: Dividing cells build labelled thymidine or BrdU into new DNA.)
Data set [1] deals with traction retinal detachment in rabbits. In words: Traction retinal detachment in rabbits after human RPE cells, intravitreal injection of 168 and 299. It counts as in vivo, rabbit.
For data set [2] the test system is unchanged. Briefly: Traction retinal detachment in rabbits after human RPE cells, subconjunctival injection. It counts as in vivo, rabbit. Particulars: subconjunctival 0.3 mg once a day for five days. The text has this:
Due to the toxicity of certain RAR agonists and because the effects of retinoids are delayed in onset and reversible, methods for sustained release of the retinoids were investigated. […] The therapeutic effect of the RAR specific agonists was greater than that of RA, which is an agonist for both RXRs and RARs. There were no signs of any toxicity to the retina.

The test system is the same in data set [3]. In words: Traction retinal detachment in rabbits after human dermal fibroblasts, subconjunctival lipid microvesicles. It counts as in vivo, rabbit. Particulars: for % Any RD / % Total RD / RD at 7 Days, Partial / RD at 7 Days, Total / RD at 14 Days, Partial / RD at 14 Days, Total / RD at 28 Days, Partial / RD at 28 Days, Total: human dermal fibroblasts.
The test system is the same in data set [4]. Briefly: Traction retinal detachment in rabbits after human dermal fibroblasts, subconjunctival injection.
The test system is the same in data set [5]. In words: Traction retinal detachment in rabbits after human dermal fibroblasts, intravitreous lipid microvesicles. Particulars: for % Any RD / % Total RD / RD at 7 Days, Partial / RD at 7 Days, Total / RD at 14 Days, Partial / RD at 14 Days, Total / RD at 28 Days, Partial / RD at 28 Days, Total: human dermal fibroblasts.
Description: In this experiment the retinoid was incorporated into lipid microvesicles utilizing standard techniques.
A further data set has as its system RPE cells. Briefly: RPE cell morphology after 10 days in retinoid. It is filed as cell-based, human. Particulars: 1 μm, 5% serum, on plastic.
In data set [6] the test system is rabbit cell injection model of PVR. In words: Rabbit cell injection model of PVR (RPE cells), intravitreous injection of retinoids. It counts as in vivo. Particulars: for Any RD (%) / Total RD (%): 28 Days. As for the experimental part: Briefly, pigmented rabbits were anesthetized with a subcutaneous injection of 5 mg/kg of xylazine and 25 mg/kg of ketamine, and the pupil of one eye was dilated with 2½% phenylephrine. Under direct observation 5×10^5 RPE cells were injected into the vitreous cavity just anterior to the optic nerve. […] .
Rabbits were examined by indirect ophthalmoscopy on days 7, 14 and 28 and traction retinal detachments were graded. […] . The localized clouds decreased in size and cleared over 2 to 3 weeks. There were no visible changes in the retina. […] .
It was felt that the hair loss and possibly the loss of appetite and death were due to systemic toxicity from drug that had gotten out of the eye. […] . None of the rabbits experienced hair loss and none died; their appetites appeared to be normal.

The test system of the next data set is retinas of the rabbits. In words: Ocular toxicity after single intravitreous injection, histopathology of retina. It is filed as in vivo, rabbit. Particulars: single intravitreous injection of 100 μg, two weeks after injection. The text has this:
The rabbits were killed two weeks after injection.

The next data set concerns the target T1, RXRα (Homo sapiens, UniProt P19793).
T1 sequence (P19793 227-458 limits assumed): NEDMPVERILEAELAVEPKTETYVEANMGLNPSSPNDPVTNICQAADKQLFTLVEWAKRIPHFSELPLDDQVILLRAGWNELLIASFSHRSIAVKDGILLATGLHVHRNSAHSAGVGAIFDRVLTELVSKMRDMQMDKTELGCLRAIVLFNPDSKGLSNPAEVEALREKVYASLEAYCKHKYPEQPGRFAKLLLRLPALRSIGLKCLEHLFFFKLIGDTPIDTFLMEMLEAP
Briefly: Transactivation, ER/RXR-α hybrid receptor + ERE-CAT reporter cotransfected in HeLa cells.

Setting [7] is: 50 μg, single intravitreous injection.
Where [8] appears, read: 100 μg intravitreous, two injections (day 1 and day 2 after cell injection).
[9] abbreviates: 100 μg intravitreous, two injections.
Setting [10] is: Homo sapiens, RPE, read-out: Percent Inhibition of [3H]thymidine incorporation in RPE cells.

The text below walks through data of patent US6573271B2, “Method of preventing proliferation of retinal pigment epithelium by retinoic acid receptor agonists” (John Hopkins University School of Medicine, priority 1995, dated 2003).

The term IC50 denotes the midpoint of a concentration-inhibition curve. On to `CC1=C(/C=C/C(C)=C/C=C/C(C)=C\C(=O)O)C(C)(C)CCC1` [13-cis RA, 13-cis-retinoic acid, reference compound], for which the IC50 in the data set on human RPE cells (read-out: RPE 148 IC50 (50% inhibition of RPE cell growth relative to mock treated RPE cells), measured as in Example 2) is 0.03 µM.
For `CCOC(=O)c1ccc(C#Cc2ccc3c(c2)C(C)(C)CCS3)nc1` [Compound 168, ethyl 6-[2-(4,4-dimethylthiochroman-6-yl)ethynyl]nicotinate], in [1], the “% Any RD” value is 80%; the “% Total RD” value is recorded as 8%; the “RD at 7 Days, Partial” value stood at 1; the “RD at 7 Days, Total” value turned out to be 0. Moreover, in data set [1], the “RD at 14 Days, Partial” value is on record as 1; the “RD at 14 Days, Total” value is 0; the “RD at 28 Days, Partial” value is 7; the “RD at 28 Days, Total” value turned out to be 1. Further, in data set [2], the “% Any RD” value is on record as 16%; the “% Total RD” value is 16%; the “RD at 7 Days, Partial” value is given as 0; the “RD at 7 Days, Total” value is listed as 0. In addition, in [2], the “RD at 14 Days, Partial” value came to 0; the “RD at 14 Days, Total” value is given as 0; the “RD at 28 Days, Partial” value was 1; the “RD at 28 Days, Total” value was found to be 0. For the same compound, in data set [3], the “inhibition of tractional retinal detachment” value is reported as “substantially more effective at inhibiting tractional retinal detachment”; the “% Any RD” value is given as 33%; the “% Total RD” value stood at 33%; the “RD at 7 Days, Partial” value came out at 0. Besides, in data set [3], the “RD at 7 Days, Total” value is 0; the “RD at 14 Days, Partial” value was found to be 1; the “RD at 14 Days, Total” value was 0; the “RD at 28 Days, Partial” value is 0. In addition, the “RD at 28 Days, Total” value in data set [3] is reported as 2. In data set [4], the “% Any RD” value worked out at 60%; the “% Total RD” value is listed as 20%; the “RD at 7 Days, Partial” value was found to be 0; the “RD at 7 Days, Total” value came to 0. For the same compound, in data set [4], the “RD at 14 Days, Partial” value came out at 0; the “RD at 14 Days, Total” value amounted to 0; the “RD at 28 Days, Partial” value is given as 4; the “RD at 28 Days, Total” value amounted to 2. Further, the “effect on retinal detachments” value in data set [4] was “decreased the number of retinal detachments and slowed the rate at which they developed”. In data set [5], the “prevention of traction retinal detachment” value is listed as “very effective in preventing traction retinal detachment”; the “% Any RD” value is listed as 29%; the “% Total RD” value was found to be 29%; the “RD at 7 Days, Partial” value came out at 0. Also, in [5], the “RD at 7 Days, Total” value was determined as 0; the “RD at 14 Days, Partial” value worked out at 0; the “RD at 14 Days, Total” value stood at 0; the “RD at 28 Days, Partial” value is given as 0. The “RD at 28 Days, Total” value in data set [5] amounted to 2.
By EC50 is commonly meant the midpoint of the concentration-response curve. Regarding `C/C(=C\c1ccc(C(=O)O)cc1)c1ccc2c(c1)C(C)(C)CCC2(C)C` [Compound 183, p-[(E)-2-(5,6,7,8-tetrahydro-5,5,8,8-tetramethyl-2-naphthyl)propenyl]-benzoic acid], in the data set on RPE cells, the “RPE cell morphology / cell overgrowth” value is recorded as “prevented cell overgrowth”. In data set [6] (setting [7]), the “Partial RD at 14 Days (number of eyes)” value came out at 1, the “Partial RD at 28 Days (number of eyes)” value is 1, the “Total RD at 14 Days (number of eyes)” value worked out at 2 and the “Total RD at 28 Days (number of eyes)” value was 2. Besides, in data set [6] (setting [7]), the “Any RD (%)” value is 33+ % and the “Total RD (%)” value is 22%. In addition, in [6] (setting [8]), the “Partial RD at 14 Days (number of eyes)” value came to 0, the “Partial RD at 28 Days (number of eyes)” value is 0, the “Total RD at 14 Days (number of eyes)” value came out at 0 and the “Total RD at 28 Days (number of eyes)” value is 0. In addition, in data set [6] (setting [9]), the “Any RD (%)” value is 0++ % and the “Total RD (%)” value was 0%. For the same compound, the “frequency and severity of traction retinal detachments versus vehicle” value in data set [6] (initial group, intravitreous injections of 100 μg) is listed as “None of these rabbits developed retinal detachments”. Further, in data set [6] (single intravitreous injection one day after RPE cell injection), the “frequency and severity of retinal detachments versus control” value is “fewer (p(0.05) and less severe retinal detachments”. Moreover, in data set [6] (two intravitreous injections of 100 μg, five rabbits), the “deaths before completion of the 28 day observation period” value is on record as “two rabbits died”. In the data set with retinas of the rabbits, the “photoreceptor degeneration, histopathology” value is “Occasional focal areas of photoreceptor degeneration were seen in one eye”. For the same compound, in the data set on human RPE cells (setting [10]), the inhibition at 0.05 µM turned out to be 76.7%, the inhibition at 0.1 µM worked out at 98.6% and the inhibition at 1 µM stood at 98.8%. Moreover, the “inhibition of RPE cell proliferation” value with human RPE cells (comment on Table 3) is “effective inhibitors of RPE cell proliferation”. The concentration for a half-maximal effect (EC50) on RXRα came out at 15 µM.
For the compound `CC1(C)CCOc2ccc(C#Cc3ccc(C(=O)O)cn3)cc21` [Compound 299, 6-[2-(4,4-dimethylchroman-6-yl)ethynyl]nicotinic acid], in [1], the “% Any RD” value was 80%; the “% Total RD” value is listed as 40%; the “RD at 7 Days, Partial” value is 0; the “RD at 7 Days, Total” value was 0. Besides, in data set [1], the “RD at 14 Days, Partial” value was 1; the “RD at 14 Days, Total” value turned out to be 1; the “RD at 28 Days, Partial” value amounted to 4; the “RD at 28 Days, Total” value was determined as 4. Moreover, in data set [2], the “% Any RD” value came to 0%; the “% Total RD” value was 0%; the “RD at 7 Days, Partial” value is 0; the “RD at 7 Days, Total” value is given as 0. Further, in [2], the “RD at 14 Days, Partial” value is reported as 0; the “RD at 14 Days, Total” value worked out at 0; the “RD at 28 Days, Partial” value worked out at 0; the “RD at 28 Days, Total” value was 0. For the same compound, in [3], the “% Any RD” value is 63%; the “% Total RD” value turned out to be 50%; the “RD at 7 Days, Partial” value came out at 0; the “RD at 7 Days, Total” value came to 0. In data set [3], the “RD at 14 Days, Partial” value came out at 0; the “RD at 14 Days, Total” value is on record as 1; the “RD at 28 Days, Partial” value came to 1; the “RD at 28 Days, Total” value is on record as 4. Also, in data set [4], the “% Any RD” value was found to be 40%; the “% Total RD” value is reported as 0%; the “RD at 7 Days, Partial” value worked out at 0; the “RD at 7 Days, Total” value came to 0. Besides, in data set [4], the “RD at 14 Days, Partial” value worked out at 0; the “RD at 14 Days, Total” value amounted to 0; the “RD at 28 Days, Partial” value is given as 4; the “RD at 28 Days, Total” value was 0. The “effect on retinal detachments” value in [4] was “decreased the number of retinal detachments and slowed the rate at which they developed”. In addition, in data set [5], the “prevention of traction retinal detachment” value is given as “not effective”; the “% Any RD” value came to 100%; the “% Total RD” value is listed as 100%; the “RD at 7 Days, Partial” value is reported as 0. In addition, in data set [5], the “RD at 7 Days, Total” value was determined as 0; the “RD at 14 Days, Partial” value is given as 0; the “RD at 14 Days, Total” value amounted to 0; the “RD at 28 Days, Partial” value is 0. Also, the “RD at 28 Days, Total” value in [5] was 3.
In the case of `C=C1/C(=C\C=C2/CCC[C@]3(C)[C@@H]([C@H](C)CCCC(C)(C)O)CC[C@@H]23)C[C@@H](O)C[C@@H]1O` [Compound D3, 1,25-dihydroxyvitamin D3, reference compound], the “effect on RPE cell proliferation, agent alone” value in the data set with human RPE cells is on record as “did not”.
In the case of `N[C@@H](Cc1cc(I)c(Oc2ccc(O)c(I)c2)c(I)c1)C(=O)O` [Compound T3, reference compound], the “effect on RPE cell proliferation, agent alone” value in the data set with human RPE cells is given as “did not”.
